{
  "source": "patent US7425579B2",
  "about": "“Methods for inhibiting activity of polyamine transporters” (Universite Laval, priority 1998, dated 2008)",
  "key": {"[1]": {"assay": "Bioavailability of BNSD-X in drinking water: plasma and erythrocyte concentrations", "format": "in vivo, CD-1 mice", "settings": "for Erythrocyte concentration, Spermidine / Erythrocyte concentration, Spermine / Plasma concentration, BNSD-X / Plasma concentration, Putrescine / Plasma concentration, Spermidine / Plasma concentration, Spermine: mean±S.E.", "description": "To determine the bioavailability of BNSD-X, escalating doses of BNSD-X were dissolved in the drinking water (0, 0.25, 0.5, 1, 2 and 4%, w/v) and were made available to CD-1 mice (n=6/group) ad libitum. Animals were sacrificed after 96 h, and blood was immediately collected to determine the concentration of BNSD-X and polyamines in plasma and erythrocytes by HPLC using the dansylation method (Kabra et al. (1986) J. Chromatogr. 380:19-32).\nThe suitability of BNSD-X as an in vivo inhibitor of polyamine transport was next assessed in the mouse. We first determined the bioavailability of the compound by adding escalating doses of BNSD-X (0, 0.25, 0.5, 1.0, 2.0 and 4.0% (w/v)) in the drinking water of CD-1 mice. Mice were sacrificed after 4 d and the concentration of BNSD-X and polyamines was determined in plasma and erythrocytes (Tables 3 and 4). […] The plasma concentration reached by the chronic drinking of a 1% (w/v) solution of BNSD-X is thus approximately equal to the Ki value of the drug as an inhibitor of spermidine uptake in breast cancer cells (see Table 1). The drug had no effect on the plasma concentration of either putrescine, spermidine or spermine. […] These pharmacokinetic properties indicate that BNSD-X can be administered by a very convenient route to animals up to a dose sufficient in principle to inhibit the major fraction of the uptake of spermidine from the plasma."}, "[2]": {"test_system": "CHO-K1 cells", "assay": "Determination of intracellular polyamine contents in CHO-K1 cells", "format": "cell-based, Chinese hamster", "description": "At the indicated time, cells were harvested for the determination of putrescine (A), spermidine (B) and spermine contents (C). Data are presented as the mean±SD for triplicate cultures from one representative experiment; […] At the indicated time intervals, medium was removed, cell monolayers were rinsed twice: with 10 ml of ice-cold Ca^2+/Mg^2+-free phosphate-buffered saline (PBS) (2.7 mM KCl, 1.5 mM KH2PO4, 8.1 mM Na2HPO4, 137 mM NaCl), and cells were harvested by low-speed centrifugation (2400 g for 5 min at 4° C.). […] Polyamine content was then determined by ion-pair reverse phase HPLC with fluorometric detection after post-column derivatization with o-phthaldialdehyde as described (U.S. Pat. No. 6,083,496). […] Pat. No. 6,083,496)."}, "[3]": {"test_system": "mammalian polyamine carrier", "assay": "Determination of polyamine uptake activity: inhibition of diamine and polyamine transport in T-47D cells", "format": "cell-based, human", "settings": "T-47D breast cancer cells; mean±SD; read-out: Ki, inhibition of [3H]putrescine uptake", "description": "The rate of diamine and polyamine transport was determined in T-47D and ZR-75-1 cells incubated in serum-free RPMI 1640 medium as previously described (U.S. Pat. No. 6,083,496; Covassin et al. (1999) Bioorg. Med. Chem. Lett. 9, 1709-1714), using 20 μM [^3H]putrescine (179 Ci/mol), 5 μM [^3H]spermidine (246 Ci/mol) and 3 μM [^14C]spermine (300-400 mCi/mol) respectively, as substrates for a 20-min assay period. Uptake activity was expressed per amount of DNA as fluorometrically determined using 3,5-diaminobenzoic acid (Simard et al. (1990) Endocrinology 126, 3223-3231). Kinetic parameters of polyamine transport inhibition for the transport antagonists were determined by Lineweaver-Burke analysis of uptake activity in the presence of 0.1 μM [^3H]putrescine, 0.03 μM [^3H]spermidine, and 0.01 μM [^14C]spermine plus increasing concentrations of nonradioactive substrate. For competitive inhibitors, Ki values were estimated by iterative curve fitting for sigmoidal equations describing transport rates in the presence of increasing concentrations of antagonist, using the Cheng-Prusoff equation for competitive inhibition (U.S. Pat. No. 6,083,496).\nThe ability of BSD and BNSD compounds to inhibit uptake of the main natural substrates of the mammalian polyamine carrier, namely putrescine, spermidine and spermine, was evaluated using T-47D human breast cancer cells (Table 1).\nData are presented as the mean±SD of at least two independent determinations of IC50 values, each based on triplicate determinations of uptake velocity at increasing inhibitor concentrations.\nThe potency of the polyamines and their xylylated dimers as competitive inhibitors of spermidine transport was evaluated in the T-47D human breast cancer cell line (Table 2)."}, "[4]": {"test_system": "CHO-K1 cells", "assay": "Reversal of DFMO-induced cytostasis by exogenous spermidine in CHO-K1 cells", "format": "cell-based, Chinese hamster", "description": "FIGS. 8A and 8B are graphs representing the time course of the effect of a compound used in a method according to a preferred embodiment of the invention on rescue of DFMO-induced cytostasis by exogenous spermidine. In particular, at time zero, T-47D (panel A) or CHO-K1 (panel B) were seeded at 1×10^4 or 5×10^3 cells/well, respectively, in medium containing 1 mM aminoguanidine, plus either 0.3 μM spermidine (Spd, ●), 2 mM DFMO (□), Spd+DFMO (▪), 50 μM (A) or 100 μM (B) BNSD-X (Δ), BNSD-X+Spd (▴), BNSD-X+DFMO (□), BNSD-X+Spd+DFMO (▾), or vehicle only (∘). At the indicated time, total DNA content/well was determined. Data are presented as the mean±SD for triplicate cultures from one representative experiment;\nTo determine the ability of polyamine transport antagonists to potentiate DFMO-induced inhibition of cell proliferation in the presence of exogenous polyamines, cells were grown for the indicated period in growth medium supplemented with 1 mM aminoguanidine, and either DFMO (1 to 5 mM), the indicated transport inhibitor (50 or 100 μM), or the combination thereof, as well as increasing concentrations of spermidine (0.1 to 300 μM). Fresh medium was added every other day, and cell mass was determined at various time points during the period of exponential growth, or at the end of the experimental period. For the latter experiments, the FBS supplement was replaced with dextran-coated charcoal-treated FBS (5%, v/v) plus 0.5 μg/ml insulin in the case of T-47D, ZR-75-1 and MCF-7 cells (U.S. Pat. No. 6,083,496)."}, "[5]": {"settings": "0.25% (w/v) BNSD-X in drinking water, 96 h"}, "[6]": {"settings": "0.50% (w/v) BNSD-X in drinking water, 96 h"}, "[7]": {"settings": "1.0% (w/v) BNSD-X in drinking water, 96 h"}},
  "data": [
    {"smiles": "NCCCN(CCCN)Cc1ccc(CN(CCCN)CCCN)cc1", "note": "[28a, N,N,N′,N′-tetrakis-(3-aminopropyl)-p-diaminoxylene]", "values": [
      {"measurement": "Erythrocyte concentration, Spermidine", "setting": "[1]; [5]", "value": "1975 ± 236 nmol/L packed erythrocytes"},
      {"measurement": "Erythrocyte concentration, Spermine", "setting": "[1]; [5]", "value": "60 ± 14 nmol/L packed erythrocytes"},
      {"measurement": "Plasma concentration, BNSD-X", "setting": "[1]; [5]", "value": "6 ± 3", "unit": "nM"},
      {"measurement": "Plasma concentration, Putrescine", "setting": "[1]; [5]", "value": "108 ± 11", "unit": "nM"},
      {"measurement": "Plasma concentration, Spermidine", "setting": "[1]; [5]", "value": "147 ± 6", "unit": "nM"},
      {"measurement": "Plasma concentration, Spermine", "setting": "[1]; [5]", "value": "24 ± 1", "unit": "nM"},
      {"measurement": "Erythrocyte concentration, Spermidine", "setting": "[1]; [6]", "value": "2762 ± 560 nmol/L packed erythrocytes"},
      {"measurement": "Erythrocyte concentration, Spermine", "setting": "[1]; [6]", "value": "95 ± 12 nmol/L packed erythrocytes"},
      {"measurement": "Plasma concentration, BNSD-X", "setting": "[1]; [6]", "value": "32 ± 6", "unit": "nM"},
      {"measurement": "Plasma concentration, Putrescine", "setting": "[1]; [6]", "value": "106 ± 10", "unit": "nM"},
      {"measurement": "Plasma concentration, Spermidine", "setting": "[1]; [6]", "value": "137 ± 18", "unit": "nM"},
      {"measurement": "Plasma concentration, Spermine", "setting": "[1]; [6]", "value": "31 ± 6", "unit": "nM"},
      {"measurement": "Erythrocyte concentration, Spermidine", "setting": "[1]; [7]", "value": "2079 ± 291 nmol/L packed erythrocytes"},
      {"measurement": "Erythrocyte concentration, Spermine", "setting": "[1]; [7]", "value": "83 ± 23 nmol/L packed erythrocytes"},
      {"measurement": "Plasma concentration, BNSD-X", "setting": "[1]; [7]", "value": "129 ± 33", "unit": "nM"},
      {"measurement": "Plasma concentration, Putrescine", "setting": "[1]; [7]", "value": "117 ± 19", "unit": "nM"},
      {"measurement": "Plasma concentration, Spermidine", "setting": "[1]; [7]", "value": "168 ± 15", "unit": "nM"},
      {"measurement": "Plasma concentration, Spermine", "setting": "[1]; [7]", "value": "38 ± 3", "unit": "nM"},
      {"measurement": "water consumption", "setting": "[1]; BNSD-X concentrations higher than 1.0% (2.0 and 4.0%) in drinking water", "value": "decreased drastically"},
      {"measurement": "effect on the plasma concentration of putrescine, spermidine or spermine", "setting": "[1]; BNSD-X in drinking water, 96 h", "value": "no effect"},
      {"measurement": "accumulation into erythrocytes", "setting": "[1]; BNSD-X up to 1.0% in drinking water", "value": "did not accumulate into erythrocytes"},
      {"measurement": "oral absorption", "setting": "[1]; in drinking water", "value": "readily absorbed orally"},
      {"measurement": "reduction of intracellular spermidine content by BNSD-X alone", "setting": "[2]; 100 μM, over the first 2 days of incubation", "value": "about 50%"},
      {"measurement": "effect on intracellular putrescine content", "setting": "[2]; single agent", "value": "quickly led to putrescine depletion"},
      {"measurement": "effect on intracellular spermine content", "setting": "[2]; up to 4 days", "value": "no significant effect on spermine content"},
      {"measurement": "Ki", "setting": "[3]", "value": "160 ± 30", "unit": "nM"},
      {"measurement": "effect on the antiproliferative action of DFMO in the nominal absence of exogenous polyamines, CHO-K1", "setting": "[4]; 100 μM BNSD-X, 2 mM DFMO", "value": "strongly potentiated the antiproliferative effect of DFMO"},
      {"measurement": "effect on spermidine-mediated reversal of DFMO-induced growth inhibition, CHO-K1", "setting": "[4]; DFMO-treated CHO-K1 cells with extracellular spermidine, data not shown", "value": "afforded increased resistance to exogenous spermidine"}
    ]}
  ]
}
